Experimental data as given in paper PMC3977574, “Structural Basis of Mos1 Transposase Inhibition by the Anti-retroviral Drug Raltegravir” (ACS Chemical Biology, 2014).

Molecular target: T1, Mos1 transposase (Drosophila mauritiana, UniProt Q7JQ07, T216A)
T1 construct: gene mariner\T; Mos1 transposase catalytic domain (crystal); Mos1 transposase and paired-end complex (thermal denaturation and activity assays)
Experiment: X-ray co-crystal structures at […] Å (soak); thermal denaturation shift; strand transfer assay IC50 […]; plasmid cleavage assay IC50 […]
Type: biochemical

T1 sequence (Q7JQ07 whole entry T216A, the tested form may be a part): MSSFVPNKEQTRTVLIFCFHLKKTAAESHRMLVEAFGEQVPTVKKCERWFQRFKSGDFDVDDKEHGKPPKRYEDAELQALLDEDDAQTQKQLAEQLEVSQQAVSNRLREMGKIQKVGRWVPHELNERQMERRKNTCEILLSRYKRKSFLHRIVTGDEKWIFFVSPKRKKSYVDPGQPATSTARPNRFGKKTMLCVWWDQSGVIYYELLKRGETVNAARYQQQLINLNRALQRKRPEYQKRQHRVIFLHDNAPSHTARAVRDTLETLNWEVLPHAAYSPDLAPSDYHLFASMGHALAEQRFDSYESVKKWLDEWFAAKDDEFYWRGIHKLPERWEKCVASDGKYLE

Cc1nnc(C(=O)NC(C)(C)c2nc(C(=O)NCc3ccc(F)cc3)c(O)c(=O)n2C)o1 [Raltegravir]
IC50: ~2000 nM
